The target in test [1] is T1, DGKζ (Homo sapiens, UniProt Q13574).
T1 construct: His; purchased Signal Chem D30-10H
The experiment in a line: In vitro DGKζ inhibition assay (ADP-Glo). The format is biochemical. The following applies: His-tagged human recombinant DGKζ 0.4 nM, 30 μM ATP, 20 μM DLG, 90 minute incubation. The procedure: (§1) The DGKα and DGKζ biochemical reactions were performed using His-tagged human recombinant enzymes (Signal Chem, DGKα, #D21-10BH; DGKζ, #D30-10H)) and DLG (Dilauroyl-sn-glycerol) lipid substrate (Signal Chem, #D430-59). ADP-Glo assay was performed using ADP-Glo™ kinase Assay kit (Promega, #V9104). The reactions were carried out in assay buffer containing 40 mM Tris, pH 7.5, 0.1% CHAPS, 0.1% Prionex, 40 mM NaCl, 5 mM MgCl2, 1 mM CaCl2, and 1 mM DTT. DGKα reactions contained 0.1 nM DGKα, 50 μM ATP, and 20 μM DLG. And DGKζ reactions contained 0.4 nM DGKζ, 30 μM ATP, and 20 μM DLG.
(§2) Compounds were added with top concentration of 2 mM with 11 point, 3-fold dilution series. Enzyme solution (contains 2×DGK enzyme concentration in 1× assay buffer) was added to the plate in 2 μL/well volume, followed by 2 μL/well of substrate solution (contains 2× concentration of ATP and DLG substrate in 1× assay buffer). Plates were then centrifuged for 1 min at 1200 RPM and sealed or lidded. For 4 μL reaction volume, test compounds were therefore diluted 100× to final top concentration of 20 μM. After 90 minute incubation, reactions were quenched by addition of 2 μL/well Promega ADP-Glo Reagent, followed by centrifugation and lidding. After 60 min incubation, 2 μL/well Promega Kinase Detection Reagent was added, plates centrifuged, and incubated for 30 min. Plates were then read using Luminescence method on BMG PHERAstar FSX plate reader. Percent inhibition was calculated and IC50s were determined using 4-parameter fit in Genedata Screener. Labcyte Echo acoustic dispenser was used for compound addition, and Formulatrix Tempest liquid handler was used for all reagent dispenses.

Test [2] addresses T2, DGKα (Homo sapiens, UniProt P23743).
T2 construct: His; purchased Signal Chem D21-10BH
The experiment in a line: In vitro DGKα inhibition assay (ADP-Glo). The format is biochemical. The following applies: His-tagged human recombinant DGKα 0.1 nM, 50 μM ATP, 20 μM DLG, 90 minute incubation. The procedure:
as §1, §2

T1 sequence (Q13574 whole entry): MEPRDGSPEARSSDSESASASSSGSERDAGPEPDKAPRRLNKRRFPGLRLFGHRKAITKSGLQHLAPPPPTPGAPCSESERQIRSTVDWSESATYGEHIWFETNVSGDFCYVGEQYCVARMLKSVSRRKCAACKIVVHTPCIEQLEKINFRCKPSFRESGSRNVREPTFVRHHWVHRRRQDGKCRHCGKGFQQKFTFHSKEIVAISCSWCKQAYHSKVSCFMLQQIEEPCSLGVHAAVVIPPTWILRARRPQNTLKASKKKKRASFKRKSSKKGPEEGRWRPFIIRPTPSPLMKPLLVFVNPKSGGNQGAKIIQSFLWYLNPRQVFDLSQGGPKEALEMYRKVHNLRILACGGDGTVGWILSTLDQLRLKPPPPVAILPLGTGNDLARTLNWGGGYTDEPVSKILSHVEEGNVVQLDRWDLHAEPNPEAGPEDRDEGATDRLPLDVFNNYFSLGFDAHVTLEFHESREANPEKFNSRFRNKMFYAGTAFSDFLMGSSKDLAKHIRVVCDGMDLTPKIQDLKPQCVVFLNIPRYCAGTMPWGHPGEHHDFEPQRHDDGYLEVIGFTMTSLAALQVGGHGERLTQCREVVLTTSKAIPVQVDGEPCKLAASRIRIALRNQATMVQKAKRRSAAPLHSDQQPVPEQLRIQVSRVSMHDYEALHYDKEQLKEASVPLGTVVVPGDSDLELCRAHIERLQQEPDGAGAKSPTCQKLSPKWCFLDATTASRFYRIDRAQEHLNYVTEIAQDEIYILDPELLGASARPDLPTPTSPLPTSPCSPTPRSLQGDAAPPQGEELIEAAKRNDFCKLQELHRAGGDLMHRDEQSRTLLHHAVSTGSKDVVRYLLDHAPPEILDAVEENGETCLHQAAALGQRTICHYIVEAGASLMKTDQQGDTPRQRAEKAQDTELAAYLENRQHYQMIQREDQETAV
T2 sequence (P23743 whole entry): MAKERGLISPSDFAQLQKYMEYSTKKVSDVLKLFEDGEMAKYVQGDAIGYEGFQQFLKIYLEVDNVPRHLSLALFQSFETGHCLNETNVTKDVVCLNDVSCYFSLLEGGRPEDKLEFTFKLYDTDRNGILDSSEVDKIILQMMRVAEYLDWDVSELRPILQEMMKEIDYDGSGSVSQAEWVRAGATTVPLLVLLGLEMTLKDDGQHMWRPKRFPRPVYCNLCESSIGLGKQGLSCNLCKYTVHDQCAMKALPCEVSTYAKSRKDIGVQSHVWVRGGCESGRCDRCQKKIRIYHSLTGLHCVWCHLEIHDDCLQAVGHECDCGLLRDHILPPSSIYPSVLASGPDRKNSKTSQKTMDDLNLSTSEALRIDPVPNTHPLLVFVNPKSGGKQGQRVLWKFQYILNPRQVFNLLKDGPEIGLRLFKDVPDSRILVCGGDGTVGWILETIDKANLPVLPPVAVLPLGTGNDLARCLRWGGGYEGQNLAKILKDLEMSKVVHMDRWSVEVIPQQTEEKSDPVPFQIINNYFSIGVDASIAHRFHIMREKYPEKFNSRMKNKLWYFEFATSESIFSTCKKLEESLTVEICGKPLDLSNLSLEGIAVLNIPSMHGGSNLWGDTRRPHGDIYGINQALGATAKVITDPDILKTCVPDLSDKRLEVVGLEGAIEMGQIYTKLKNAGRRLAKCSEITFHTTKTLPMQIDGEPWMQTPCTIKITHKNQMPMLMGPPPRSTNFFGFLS

As for `Cc1nc2c(N3C[C@@H](C)N([C@@H](c4ccc(Cl)cc4F)C(C)C)C[C@@H]3C)nc3nncn3c2n1C[C@@H]1CCCO1` [Example 29, 4-((2S,5R)-4-((R)-1-(4-chloro-2-fluorophenyl)-2-methylpropyl)-2,5-dimethylpiperazin-1-yl)-2-methyl-1-(((S)-tetrahydrofuran-2-yl)methyl)-1H-[1,2,4]triazolo[3,4-b]purine], the IC50 in test [1] and in test [2] was under 20 nM in each case.
Turning to `C[C@@H]1CN(c2nc3nncn3c3c2ncn3C[C@@H]2CCCO2)[C@@H](C)CN1C(c1ccc(Cl)c(F)c1)C1CC(F)(F)C1` (stereo partly drawn) [Example 30, 4-((2S,5R)-4-((4-Chloro-3-fluorophenyl)(3,3-difluorocyclobutyl)methyl)-2,5-dimethylpiperazin-1-yl)-1-(((S)-tetrahydrofuran-2-yl)methyl)-1H-[1,2,4]triazolo[3,4-b]purine], the IC50 in test [1] and in test [2] was under 20 nM each time.
Regarding `C[C@@H]1CN(c2nc3nncn3c3c2ncn3C[C@@H]2CCCO2)[C@@H](C)CN1C(c1ccc(Cl)cc1F)C1CC(F)(F)C1` (stereo partly drawn) [Example 31, 4-((2S,5R)-4-((4-Chloro-2-fluorophenyl)(3,3-difluorocyclobutyl)methyl)-2,5-dimethylpiperazin-1-yl)-1-(((S)-tetrahydrofuran-2-yl)methyl)-1H-[1,2,4]triazolo[3,4-b]purine], the IC50 in test [1] and in test [2] was under 20 nM each time.
In the case of `C[C@@H]1CN(c2nc3nncn3c3c2ncn3C[C@@H]2CCCO2)[C@@H](C)CN1C(c1ccc(Cl)cc1)C1CC(F)(F)C1` (stereo partly drawn) [Example 32, 4-((2S,5R)-4-((4-Chlorophenyl)(3,3-difluorocyclobutyl)methyl)-2,5-dimethylpiperazin-1-yl)-1-(((S)-tetrahydrofuran-2-yl)methyl)-1H-[1,2,4]triazolo[3,4-b]purine], the IC50 in test [1] and in test [2] was under 20 nM each time.
With `C[C@@H]1CN(c2nc3nncn3c3c2ncn3C[C@@H]2CCCO2)[C@@H](C)CN1C(c1ccc(Br)cc1)C1CC(F)(F)C1` (stereo partly drawn) [Example 33, 4-((2S,5R)-4-((4-Bromophenyl)(3,3-difluorocyclobutyl)methyl)-2,5-dimethylpiperazin-1-yl)-1-(((S)-tetrahydrofuran-2-yl)methyl)-1H-[1,2,4]triazolo[3,4-b]purine], the IC50 in test [1] and in test [2] was under 20 nM each time.
With `CC[C@@H]1CN(c2nc3nncn3c3c2ncn3C[C@@H]2CCCO2)[C@@H](C)CN1C(c1ccc(Cl)cc1)C1CC(F)(F)C1` (stereo partly drawn) [Example 34, 4-((2S,5R)-4-((4-Chlorophenyl)(3,3-difluorocyclobutyl)methyl)-5-ethyl-2-methylpiperazin-1-yl)-1-(((S)-tetrahydrofuran-2-yl)methyl)-1H-[1,2,4]triazolo[3,4-b]purine], the IC50 in test [1] and in test [2] was under 20 nM throughout.
As for `CC[C@@H]1CN(c2nc3nncn3c3c2ncn3C[C@@H]2CCCO2)[C@@H](C)CN1C(c1ccc(C(F)(F)F)cc1)C1CC(F)(F)C1` (stereo partly drawn) [Example 35, 4-((2S,5R)-4-((3,3-Difluorocyclobutyl)(4-(trifluoromethyl)phenyl)methyl)-5-ethyl-2-methylpiperazin-1-yl)-1-(((S)-tetrahydrofuran-2-yl)methyl)-1H-[1,2,4]triazolo[3,4-b]purine], the IC50 in test [1] and in test [2] was under 20 nM in each case.
As to `CC[C@@H]1CN(c2nc3nncn3c3c2nc(C)n3C[C@@H]2CCCO2)[C@@H](C)CN1Cc1ccc(C(F)(F)F)cc1` [Example 36, 4-((2S,5R)-5-Ethyl-2-methyl-4-(4-(trifluoromethyl)benzyl)piperazin-1-yl)-2-methyl-1-(((S)-tetrahydrofuran-2-yl)methyl)-1H-[1,2,4]triazolo[3,4-b]purine], the half-inhibitory concentration (IC50) in test [1] and in test [2] was under 20 nM throughout.
`Cc1nc2c(N3C[C@@H](C)N(Cc4ccc(C(F)(F)F)cc4F)C[C@@H]3C)nc3nncn3c2n1C[C@@H]1CCCO1` [Example 37, 4-((2S,5R)-4-(2-Fluoro-4-(trifluoromethyl)benzyl)-2,5-dimethylpiperazin-1-yl)-2-methyl-1-(((S)-tetrahydrofuran-2-yl)methyl)-1H-[1,2,4]triazolo[3,4-b]purine]: the IC50 in test [1] and in test [2] was under 20 nM in each case.
As for `C[C@@H]1CN(c2nc3nncn3c3c2ncn3C[C@@H]2CCCO2)[C@@H](C)CN1Cc1ccc(C(F)(F)F)cc1F` [Example 38, 4-((2S,5R)-4-(2-Fluoro-4-(trifluoromethyl)benzyl)-2,5-dimethylpiperazin-1-yl)-1-(((S)-tetrahydrofuran-2-yl)methyl)-1H-[1,2,4]triazolo[3,4-b]purine], the IC50 in test [1] and in test [2] was under 20 nM in each case.
For `Cc1nc2c(N3C[C@@H](C)N(Cc4ccc(C(F)(F)F)cc4)C[C@@H]3C)nc3nncn3c2n1C[C@@H]1CCCO1` [Example 39, 4-((2S,5R)-2,5-Dimethyl-4-(4-(trifluoromethyl)benzyl)piperazin-1-yl)-2-methyl-1-(((S)-tetrahydrofuran-2-yl)methyl)-1H-[1,2,4]triazolo[3,4-b]purine], the half-inhibitory concentration (IC50) in test [1] and in test [2] was under 20 nM throughout.
As to `C[C@@H]1CN(c2nc3nncn3c3c2ncn3C[C@@H]2CCCO2)[C@@H](C)CN1Cc1ccc(C(F)(F)F)cc1` [Example 40, 4-((2S,5R)-2,5-Dimethyl-4-(4-(trifluoromethyl)benzyl)piperazin-1-yl)-1-(((S)-tetrahydrofuran-2-yl)methyl)-1H-[1,2,4]triazolo[3,4-b]purine], the IC50 in test [1] and in test [2] was under 20 nM throughout.
As for `CC[C@@H]1CN(c2nc3nncn3c3c2nc(C)n3C[C@@H]2CCCO2)[C@@H](C)CN1[C@@H](C)c1ccc(C(F)(F)F)cc1` [Example 41, 4-((2S,5R)-5-Ethyl-2-methyl-4-((S)-1-(4-(trifluoromethyl)phenyl)ethyl)piperazin-1-yl)-2-methyl-1-(((S)-tetrahydrofuran-2-yl)methyl)-1H-[1,2,4]triazolo[3,4-b]purine], the IC50 in test [1] and in test [2] was under 20 nM throughout.
Take `CC[C@@H]1CN(c2nc3nncn3c3c2nc(C)n3C[C@@H]2CCCO2)[C@@H](C)CN1[C@H](C)c1ccc(C(F)(F)F)cc1` [Example 42, 4-((2S,5R)-5-ethyl-2-methyl-4-((R)-1-(4-(trifluoromethyl)phenyl)ethyl)piperazin-1-yl)-2-methyl-1-(((S)-tetrahydrofuran-2-yl)methyl)-1H-[1,2,4]triazolo[3,4-b]purine]: the IC50 in test [1] and in test [2] was under 20 nM each time.
`C[C@@H]1CN(c2cc3nncn3c3c2ncn3C[C@@H]2CCCO2)[C@@H](C)CN1C(c1ccc(F)cc1)c1ccc(F)cc1` [Example 43, 4-((2S,5R)-4-(Bis(4-fluorophenyl)methyl)-2,5-dimethylpiperazin-1-yl)-1-(((S)-tetrahydrofuran-2-yl)methyl)-1H-imidazo[4,5-e][1,2,4]triazolo[4,3-a]pyridine]: the half-inhibitory concentration (IC50) in test [1] and in test [2] was under 20 nM in each case.
Turning to `C[C@@H]1CN(c2nc3nncn3c3c2ncn3CC2(O)CCCC2)[C@@H](C)CN1C(c1ccc(Cl)cc1)c1ccc(Cl)cc1` [Example 44, 1-((4-((2S,5R)-4-(Bis(4-chlorophenyl)methyl)-2,5-dimethylpiperazin-1-yl)-1H-[1,2,4]triazolo[3,4-b]purin-1-yl)methyl)cyclopentan-1-ol], the half-inhibitory concentration (IC50) in test [1] and in test [2] was under 20 nM in each case.
Consider `C[C@@H]1CN(c2nc3nncn3c3c2ncn3CC2(O)CCCC2)[C@@H](C)CN1C(c1ccc(Cl)cc1)C1CC(F)(F)C1` (stereo partly drawn) [Example 45, 1-((4-((2S,5R)-4-((4-Chlorophenyl)(3,3-difluorocyclobutyl)methyl)-2,5-dimethylpiperazin-1-yl)-1H-[1,2,4]triazolo[3,4-b]purin-1-yl)methyl)cyclopentan-1-ol], for which the IC50 in test [1] and in test [2] was under 20 nM each time.
As for `C[C@@H]1CN(c2nc3nncn3c3c2ncn3CC2(O)CCCC2)[C@@H](C)CN1C(c1ccc(C(F)(F)F)cc1)C1CC(F)(F)C1` (stereo partly drawn) [Example 46, 1-((4-((2S,5R)-4-((3,3-Difluorocyclobutyl)(4-(trifluoromethyl)phenyl)methyl)-2,5-dimethylpiperazin-1-yl)-1H-[1,2,4]triazolo[3,4-b]purin-1-yl)methyl)cyclopentan-1-ol], the IC50 in test [1] and in test [2] was under 20 nM in each case.
On to `C[C@@H]1CN(c2nc3nncn3c3c2ncn3C[C@@H]2CCCO2)[C@@H](C)CN1Cc1ccc(Cl)cc1` [Example 47, 4-((2S,5R)-4-(4-Chlorobenzyl)-2,5-dimethylpiperazin-1-yl)-1-(((S)-tetrahydrofuran-2-yl)methyl)-1H-[1,2,4]triazolo[3,4-b]purine], for which the half-inhibitory concentration (IC50) in test [1] and in test [2] was under 20 nM throughout.

The values are drawn from patent publication US20250179083A1, “TRICYCLIC TRIAZOLO COMPOUNDS AS DGK INHIBITORS” (Incyte Corporation, priority 2023, published 2025).
